Source: patent US20230404956A1, “T[…] FOR […]” (Asklepion Pharmaceuticals LLC, priority 2022, published 2023)

What was measured:
[1] = tested on: pediatric patients exposed to cardiopulmonary bypass in congenital heart defect surgery; assay: Phase 3 double-blind, placebo-controlled trial of citrulline in congenital heart defect surgery with cardiopulmonary bypass; type: in vivo
Experimental: A Phase 3 study was carried out as a double-blind, placebo-controlled trial to confirm the effect. The Phase 3 trial was performed in the US, EU, and Israel, using a modified intent-to-treat population (or modified full analysis set) of 190 patients, of whom 138 were in the US and 52 were ex-US.
The starting point for the analysis was consideration of the complete modified full analysis set, consisting of all enrolled patients who completed the protocol. […] The Modified Full Analysis Set consists of all enrolled patients who completed the protocol.
In the study protocol and accompanying pharmacy manual for both studies, citrulline dosing occurs in four distinct phases. Dose 1 is a loading dose added to the cardiopulmonary bypass fluids on a mg/kg basis. Dose 3 is a bolus administered following surgery on a mg/kg basis, and Dose 4 is an IV drip at 9 mg/kg/hour. No variation in administration of these doses was introduced during the course of the phase 3 study.
In contrast, Dose 2, the intraoperative dosing designed to compensate for ultrafiltration, was subject to some variation. Ultrafiltration during cardiac surgery is not standardized, and therefore, it was not possible to completely standardize this dose. The perfusionist estimates the volume of ultrafiltrate removed, as well as the volume of cardioplegia solution. The perfusionist then calculates according to the study pharmacy manual instructions the amount of citrulline to be administered to compensate for the ultrafiltered citrulline in order to maintain a specified therapeutic level.
Although the therapeutic target level was set at 100 micromolar during the phase 2 study, because of the potential for variation in Dose 2 (which is given intraoperatively to compensate for the routine ongoing ultrafiltration of circulating bypass fluids to reduce the circulating concentrations of inflammatory mediators) and the concern that some patients might inadvertently receive sub-therapeutic intraoperative levels, the target level for Dose 2 in the phase 3 study was increased to 200 micromolar. This was considered to be safe since no adverse effects of citrulline had been reported, even at substantially higher levels in medical use. In order to examine whether variation in Dose 2 could explain the results obtained, the actual dose received, shown as the percent of the targeted dose, was plotted against the composite variable results. Since placebos received no citrulline, they were plotted at the 0% level.
For the Phase 3 trial, a target intraoperative dose of […] (Dose 2) was chosen to preclude an inadvertent drop below an efficacious level in any patient. The potential for variation in intraoperative dosing arises from the lack of standardization of cardiopulmonary bypass ultrafiltration techniques. […] Nonetheless, expansion of the study to a greater number of sites raised the concern that some sites might inadvertently underdose Dose 2. Given the known innocuous nature of L-citrulline, an endogenous amino acid that is given medicinally in doses an order of magnitude higher than this to urea cycle disorder patients, as well as the well-tolerated high endogenous concentrations of citrulline in hypercitrullinemia patients, there was no concern for erring on the high side of the presumed effective dose.
To investigate the data in more detail, patients were stratified according to the dose level actually administered intraoperatively. The values obtained for duration of mechanical ventilation (MV), length of inotrope therapy (InoTx) and the composite primary (created for the SAP, based on the longer of the MV or InoTx) in any patient were segmented into groups based on the percent of the 200 μmol target dose actually received by the patient, by comparing patients who had received <65%, <75%, <85%, <95%, and >95% of the calculated target dose. […] Analysis was performed via two-sided Wilcoxon Rank Sum. […]

[2] = tested on: pediatric patients undergoing surgical procedures involving cardiopulmonary bypass; conditions: 22 patients (11 Tx, 11 PL); Dose 2 100 μmol; cited from earlier work
nitric oxide production = assay: Nitric oxide production in a murine system, measured via NO metabolites
Excerpt: It is important to recall that citrulline is regenerated in the last step of NO production, making negative feedback by citrulline a reasonable hypothesis. Alternatively, an acute increase in NO production, which is known to have a negative feedback effect on NOS (Viziri and Wang, 1999) could explain the results. […] The negative clinical effects in the >95% group for the Phase 3 trial may thus result from one or more negative feedback mechanisms. The negative feedback could result from either the effect of NO or the citrulline itself creating feedback on the system.

NC(=O)NCCC[C@H](N)C(=O)O [citrulline, L-citrulline]
Composite (the longer of the MV or InoTx), median ([1]; <65% of target Dose 2, p = 0.0040 vs placebo): 1267.0 min
Vent (duration of mechanical ventilation), median ([1]; <65% of target Dose 2, p = 0.0097 vs placebo): 139.0 min
Inotrope (duration of inotrope therapy), median ([1]; <65% of target Dose 2, p = 0.0211 vs placebo): 1260.0 min
PICU/NICU stay, median ([1]; <65% of target Dose 2, p = 0.0236 vs placebo): 2 days
Hospitalization, median ([1]; <65% of target Dose 2, p = 0.0953 vs placebo): 4 days
Long-term hospitalizations, citrulline-treated vs placebo ([1]; <75% of calculated Dose 2): fewer long-term hospitalizations
Overall length of hospital stay, citrulline vs placebo ([1]; <75% of calculated Dose 2): not significantly different
Reduction of median Composite time vs placebo ([1]; <75% of target Dose 2): 42%
Reduction of median Inotrope time vs placebo ([1]; <75% of target Dose 2): 26%
Reduction of median Mechanical Ventilation time vs placebo ([1]; <75% of target Dose 2): 70%
Reduction of median PICU/NICU stay vs placebo ([1]; <75% of target Dose 2): 33%
Composite (the longer of the MV or InoTx), median ([1]; <75% of target Dose 2, p = 0.0025 vs placebo): 1267.0 min
Vent (duration of mechanical ventilation), median ([1]; <75% of target Dose 2, p = 0.0129 vs placebo): 170.0 min
Inotrope (duration of inotrope therapy), median ([1]; <75% of target Dose 2, p = 0.0158 vs placebo): 1260.0 min
PICU/NICU stay, median ([1]; <75% of target Dose 2, p = 0.0295 vs placebo): 2 days
Hospitalization, median ([1]; <75% of target Dose 2, p = 0.1905 vs placebo): 5 days
Composite (the longer of the MV or InoTx), median ([1]; <85% of target Dose 2, p = 0.0029 vs placebo): 1283.5 min
Vent (duration of mechanical ventilation), median ([1]; <85% of target Dose 2, p = 0.0163 vs placebo): 176.0 min
Inotrope (duration of inotrope therapy), median ([1]; <85% of target Dose 2, p = 0.0176 vs placebo): 1263.5 min
PICU/NICU stay, median ([1]; <85% of target Dose 2, p = 0.0332 vs placebo): 2 days
Hospitalization, median ([1]; <85% of target Dose 2, p = 0.1369 vs placebo): 5 days
Composite (the longer of the MV or InoTx), median ([1]; <95% of target Dose 2, p = 0.0033 vs placebo): 1357.0 min
Inotrope (duration of inotrope therapy), median ([1]; <95% of target Dose 2, p = 0.0242 vs placebo): 1300.0 min
Vent (duration of mechanical ventilation), median ([1]; <95% of target Dose 2, p = 0.0459 vs placebo): 237.0 min
PICU/NICU stay, median ([1]; <95% of target Dose 2, p = 0.1232 vs placebo): 2 days
Hospitalization, median ([1]; <95% of target Dose 2, p = 0.3169 vs placebo): 5 days
Hospitalization, median ([1]; >95% of target Dose 2, p = 0.0006 vs placebo): 7 days
PICU/NICU stay, median ([1]; >95% of target Dose 2, p = 0.0034 vs placebo): 4 days
Vent (duration of mechanical ventilation), median ([1]; >95% of target Dose 2, p = 0.0041 vs placebo): 2385.0 min
Inotrope (duration of inotrope therapy), median ([1]; >95% of target Dose 2, p = 0.0069 vs placebo): 3142.5 min
Composite (the longer of the MV or InoTx), median ([1]; >95% of target Dose 2, p = 0.0114 vs placebo): 3447.0 min
Composite (the longer of the MV or InoTx), median ([1]; All Patients, p = 0.3398 vs placebo (median 2204.0)): 1640.0 min
Hospitalization, median ([1]; All Patients, p = 0.3681 vs placebo (median 5)): 5 days
Inotrope (duration of inotrope therapy), median ([1]; All Patients, p = 0.7131 vs placebo (median 1717.0)): 1514.0 min
PICU/NICU stay, median ([1]; All Patients, p = 0.8484 vs placebo (median 3)): 3 days
Vent (duration of mechanical ventilation), median ([1]; All Patients, p = 0.9205 vs placebo (median 574.5)): 672.0 min
Reduction in the length of stay in the PICU or NICU following surgery ([1]; Dose 2 at levels <95%, statistically significant): one
Duration of MV, InoTx and composite primary, vs placebo ([1]; all doses under 95% of the target, two-sided Wilcoxon Rank Sum): Statistically significant reduction of all variables
Composite endpoint, treated vs placebo ([1]; complete modified full analysis set): no difference
Effect on composite variable, duration of mechanical ventilation and inotrope therapy vs placebo ([1]; doses higher than 95% of target (>190 μmol)): statistically significant negative effect
Primary parameters (duration of MV & InoTx), treated vs placebo [2]: near-significance
Nitric oxide production as measured via NO metabolites (nitric oxide production; continued increase in citrulline concentration): diminished production of NO
Nitric oxide production (nitric oxide production; increasing levels of citrulline, initially): initially facilitate nitric oxide production
